Results reported in patent publication EP4463162B1, “CONNEXIN 43 FOR USE IN TREATING BRCA1/2-MUTATED CANCER” (Fundación Profesor Novoa Santos, priority 2022, dated 2023).

Key:
Cx43_HCC1937 cells = experiment: 48 h olaparib dose-response curve, cell viability; assay type: cell-based; conditions: Homo sapiens
HCC1937 cells = experiment: Colony formation assay; assay type: cell-based, human; conditions: 100 µM olaparib, seven days, upon Cx43 restitution
Protocol: For assessing the clonogenic capacity of tumour cells lines, they were plated as single-cell suspensions (5 000-10 000 cells) in 6 or 12-well plates (Corning) and incubated for 6-7 days with media change every 48 h. After this time, they were washed with PBS, fixed with 4 % PFA for 15 min at room temperature and stained with 0.1 % crystal violet dye (Sigma-Aldrich) for 20 min at room temperature. They were then rinsed with PBS, air dried and photographed. The staining was dissolved with 30 % acetic acid for 10 min on a shaker. The eluent was then transferred to a 96-well plate and the absorbance, indicative of colony growth, measured at 570 nm using a NanoQuant microplate reader Infinite M200 (Tecan).
For small extracellular vesicle (sEV) isolation, sEV donor cells were grown in 175 cm^2 flasks (Thermo Fisher Scientific) until 85 % confluence. […] Donor cells final density was calculated, and supernatants derived from the same number of cells were ultracentrifuged at 100 000 x g for 90 min at 4 °C using a Hitachi Ultracentrifuge CP100NX with a P70AT rotor (Hitachi). […]
Cell viability measures were either relativized to untreated controls for each cell line, in order to account for the already reduced proliferation of Cx43-restituted cells (left graph) or reported as raw absorbance values (right graph). […]

p21 = experiment: Western blot against senescence marker p21; assay type: cell-based, human; conditions: Cx43_HCC1937, 96 h, 100 µM olaparib
Protocol: Protein extracts were mixed with loading buffer, which consisted of 10 % (v/v) β-mercaptoethanol (Sigma-Aldrich), 10 % SDS, 50 % (v/v) glycerol, 200 mM Tris-HCl pH 6.8 and 0.1 % bromophenol blue (Sigma-Aldrich). They were boiled at 95 °C for 8 min and 20-30 µg protein were loaded into 8, 10 or 15 % acrylamide/bis-acrylamide self-made gels, depending on the molecular weight of the target protein/s to investigate. Gels were run at 80 V for approximately 2 h using a Mini-PROTEAN Tetra electrophoresis system (BioRad), and then transferred to methanol-preactivated polyvinylidene fluoride (PVDF) membranes (Millipore) at 100 V and 4 °C for 1-1.5 h with a Mini Trans-Blot Electrophoretic Transfer Cell (BioRad). Afterwards, membranes with the transferred proteins were stained with ATX Ponceau S red staining solution (Sigma-Aldrich) for 10 min at room temperature, photographed in an Amersham Imager 600 (GE Healthcare) and unstained with distilled water. They were then blocked for 1 h at room temperature with 5 % skim milk (Sigma-Aldrich) diluted in TBST buffer (Tris-buffered saline TBS composed of 20 mM Tris and 150 mM NaCl, supplemented with 0.05 % (v/v) Tween-20, Sigma-Aldrich) with shaking. […] Ponceau staining and western blot images were analysed and their band intensities quantitated with Image J software. […]

HCC1937 spheroids = experiment: Three-dimensional tumour spheroid proliferation (spheroid area); assay type: cell-based, human; conditions: for spheroid size, Cx43-restituted smaller than EV counterparts: after 8 days, 3000 initial cell density
Protocol: The bottom of 96-well flat bottom microplates (Greiner Bio-One) was coated with 1.5 % solution of UltraPure Low Melting Point Agarose (Invitrogen, Thermo Fisher Scientific). Agarose concave bottoms provide non-adhesive conditions and increase cell contacts. 100-200 µL of single-cell suspensions were plated on top of the agarose diluted in their respective media supplemented with 3.5 % Matrigel Matrix Basement Membrane Growth Factor Reduced (Corning) and 5 ng/mL human recombinant EGF (Sigma-Aldrich). Afterwards, plates were incubated under standard cell culture conditions and spheroids were monitored from day 2 onwards by optical microscopy.
Uniform-sized spheroids were produced by plating 3000 EV and Cx43_HCC1937 cells under ultra-low attachment conditions, as well as 5000 Cx43_HCC1937 cells in parallel to account for the expected anti-proliferative effect of Cx43 in untreated tumour cells (day -4) (Figure 7). […] Spheroids were individually tracked during this time and their size was registered every 48 h.
Afterwards, spheroid area measurements were pooled for each condition and EV spheroids were compared against Cx43_HCC1937 spheroids, either those plated at 3000 or 5000 initial cell densities.
Next, Cx43 involvement in the TNBC pathogenesis was studied under more physiological approaches, namely 3D spheroid culture (Figure 10.B) and Anoikis-inducing conditions (Figure 10.C). 3D spheroid culture (Figure 10.B) of HCC1937 cells for 12 days further corroborated the reduction in proliferation determined in 2D culture (Figure 10.A) resulting from Cx43 restoration.

With O=C(c1cc(Cc2n[nH]c(=O)c3ccccc23)ccc1F)N1CCN(C(=O)C2CC2)CC1 [Olaparib, olaparib] the IC50 (Cx43_HCC1937 cells) was 350 µM, the “cell viability (colony formation)” value (HCC1937 cells) was “profound decrease in HCC1937 cell viability” and the “senescence marker p21” value (p21) was “significantly increased”. The spheroid appearance (HCC1937 spheroids; Cx43_HCC1937 spheroids (3000 and 5000), 8 days of 600 µM olaparib, vs well-defined EV_HCC1937 spheroids) was “almost non-existent”, the “spheroid size, Cx43-restituted smaller than EV counterparts” value (from here on “spheroid size”) (HCC1937 spheroids; olaparib 200 µM) was 41.7% and the “spheroid size” value (HCC1937 spheroids; olaparib 400 µM) was 29.68%. For the same compound, the “spheroid size” value (HCC1937 spheroids; olaparib 600 µM) was 12.57%.
